Laboratory results published in patent US20250064773A1, “TARGETING ERO1 ALPHA WITH AURONE DERIVATIVES” (West Virginia University Board of Governors on behalf of …, priority 2021, published 2025).
pIC50: −log10 of the molar value.

Experiments:
[1] = tested on: normal lung epithelial cell line Beas-2B; assay: MTT viability assay, Beas-2B; assay type: cell-based; conditions: Homo sapiens, Normal Lung Epithelium
Description: Cell Lines: PC-9 cell line used was obtained from Sigma Aldrich and grown in RPMI 1640 medium with 10% fetal bovine serum and 1% penicillin/streptomycin. HCC4006, U266, MM1.s, and Beas-2B cell lines were obtained from ATCC and cultured in either RPMI 1640 or DMEM with 10% fetal bovine serum and 1% penicillin/streptomycin. All cell lines were also checked for mycoplasma every six months and subjected to short tandem repeat (STR) analysis for cell line validation. CRISPR Cas9: CRISPR Guide RNA 2 targeting ERO1α and CRISPR Guide RNA 4 were purchased from Genscript in the pLentiCRISPR V2 plasmid containing puromycin/ampicillin selection marker. Lentivirus was made from HEK 293T cells by co-transfection with GuideRNA of interest, pVSVG, and pPAX2 plasmids. […] Plate was then read on the BioTek Cytation 5 at 530/590 nm. […] Plate was then read at 570 nm. Treated wells were all compared to DMSO control wells to calculate percent growth inhibition and the IC50 was calculated using GraphPad (log(inhibitor) vs growth inhibition). […] Images were then quantified using ImageJ. […] Cells were aliquoted at 1 million cells per PCR tube in PBS and heated in Bio-Rad T100 thermal cycler at indicated temperatures (RT, 46° C., 48° C., 50° C., 52° C., 54° C., 56°, 58° C., and 60° C.) for 3 minutes and aggregation temperature was determined by western blot analysis. […]

purified human ERO1α = target: T1, purified human ERO1α (Homo sapiens, UniProt Q96HE7, C104A/C131A/C166A); assay: Lineweaver-Burk enzyme kinetics with varying PDI (Amplex Red); assay type: biochemical; conditions: varying PDI and T151742 concentrations
T1 construct: made in house
T1 sequence (Q96HE7 22-468 C104A/C131A/C166A): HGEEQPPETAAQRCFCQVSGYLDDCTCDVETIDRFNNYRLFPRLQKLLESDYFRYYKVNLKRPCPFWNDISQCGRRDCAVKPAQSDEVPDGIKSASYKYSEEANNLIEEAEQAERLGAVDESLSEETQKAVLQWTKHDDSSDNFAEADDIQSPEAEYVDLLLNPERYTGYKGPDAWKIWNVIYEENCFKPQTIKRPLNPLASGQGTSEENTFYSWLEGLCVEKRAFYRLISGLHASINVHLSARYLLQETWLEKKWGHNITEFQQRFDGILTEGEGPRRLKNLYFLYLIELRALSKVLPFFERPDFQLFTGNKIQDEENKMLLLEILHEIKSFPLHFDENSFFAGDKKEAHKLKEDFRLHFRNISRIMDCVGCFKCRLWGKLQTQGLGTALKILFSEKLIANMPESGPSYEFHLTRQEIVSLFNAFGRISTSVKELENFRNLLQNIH

## CN(C)c1ccc(/C=C2\Oc3cc(O)ccc3C2=O)cc1 [Compound T151742]
[1]
  pIC50: < 4.00
Purified human ERO1α
  mechanism of inhibition of ERO1α: non-competitive (mixed) inhibitor
